Assay results as given in ChEMBL document CHEMBL5579804, “Synthesis and kinetic evaluation of phosphomimetic inhibitors targeting type B ribose-5-phosphate isomerase from Mycobacterium tuberculosis” (Bioorg Med Chem Lett, 2024).

Experiments:
[1] = target: T1, Ribose-5-phosphate isomerase B (Mycobacterium tuberculosis) (UniProt P9WKD7); test: Competitive inhibition of Mycobacterium tuberculosis RPIB assessed as ratio of Km/Ki using D-ribose-5-phosphate as substrate by Cheng-Prusoff equation analysis
T1 sequence (whole entry): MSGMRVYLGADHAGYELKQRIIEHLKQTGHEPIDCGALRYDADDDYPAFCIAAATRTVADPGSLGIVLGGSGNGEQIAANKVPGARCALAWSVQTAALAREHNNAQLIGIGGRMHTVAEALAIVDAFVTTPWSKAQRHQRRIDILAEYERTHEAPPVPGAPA

[2] = target: T2, ribose-5-phosphate isomerase (Spinacia oleracea) (UniProt Q8RU73); test: Competitive inhibition of Spinacia oleracea RPIA assessed as ratio of Km/Ki using D-ribose-5-phosphate as substrate by Cheng-Prusoff equation analysis
T2 sequence (whole entry): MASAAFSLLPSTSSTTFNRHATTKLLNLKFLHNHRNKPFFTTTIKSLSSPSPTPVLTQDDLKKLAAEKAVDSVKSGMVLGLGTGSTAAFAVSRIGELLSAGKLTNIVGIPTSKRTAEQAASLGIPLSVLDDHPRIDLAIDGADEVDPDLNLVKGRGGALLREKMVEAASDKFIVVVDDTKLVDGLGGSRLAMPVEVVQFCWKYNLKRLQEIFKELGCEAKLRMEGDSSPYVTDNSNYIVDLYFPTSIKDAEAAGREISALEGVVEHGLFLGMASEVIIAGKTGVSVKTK

[3] = Selectivity ratio of Km/Ki for Mycobacterium tuberculosis RpiB to Km/Ki for Spinacia oleracea RpiA
[4] = target: T3, Ribose-5-phosphate isomerase B (Escherichia coli (strain K12)) (UniProt P37351); test: Competitive inhibition of Escherichia coli RPIB assessed as ratio of Km/Ki using D-ribose-5-phosphate as substrate by Cheng-Prusoff equation analysis
T3 sequence (whole entry): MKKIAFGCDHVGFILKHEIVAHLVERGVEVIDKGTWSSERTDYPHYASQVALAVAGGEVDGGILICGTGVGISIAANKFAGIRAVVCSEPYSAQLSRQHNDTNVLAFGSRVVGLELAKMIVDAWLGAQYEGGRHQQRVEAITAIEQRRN

Compound | Ratio [1] | Ratio [2] | Selectivity ratio [3] | Ratio [4]
CC(C(C(=O)O)C(=O)O)[C@@H](O)[C@@H](O)[C@@H](O)CCC(=O)O (some centres not stated) | 7 | < 4 | > 1.7 | –
CC(C(C(=O)O)C(=O)O)[C@@H](O)[C@@H](O)[C@@H](O)CCP(=O)(O)O (some centres not stated) | 26 | < 4 | > 6.5 | –
O=S(=O)(O)CC[C@H]1OC(O)[C@H](O)[C@@H]1O (some centres not stated) | 19 | 26 | 0.7 | 9
O=C(O)[C@@H](O)[C@@H](O)[C@@H](O)COP(=O)(O)O (single isomer, unassigned) | 233 | 79 | 3 | –
O=S(=O)(O)OC[C@H]1OC(O)[C@H](O)[C@@H]1O (some centres not stated) | 53 | 17 | 3.1 | 18
O=C(O)[C@H](O)[C@H](O)[C@H](O)COP(=O)(O)O | – | – | 4.5 | –
O=C(O)C(C[C@H]1OC(O)[C@H](O)[C@@H]1O)C(=O)O (some centres not stated) | 6 | 7 | 0.8 | 2
